Laboratory results as given in patent US9315522B2, “Antibacterial compounds” (JANSSEN SCIENCES IRELAND UC, priority 2012, dated 2016).
≈ marks a conversion by molar mass, not a printed value. Where “and” joins values, the source holds several entries; their conditions need not be identical. Identical values can stand only once.

What was measured:
[1] = Cytotoxicity MTT assay (HELAM); format: cell-based, Human; conditions: human, HelaM cells, read-out: HELAM (222.125) CC50
Procedure: Cytotoxicity of the compounds was evaluated using the MTT assay. Human HelaM cells grown in 96-well plates were exposed to serial dilutions of the tested compounds (final volume of 0.2 ml) and incubated for 72 hours at 37° C. and 5% CO2. Inhibitors are typically varied over the range of 25 to 0.8 μM. The final DMSO concentration in the assay is 0.5%. MTT (3-(4,5-Dimethylthiazol-2-yl)-2,5-diphenyltetrazolium bromide, a tetrazole) was added and reduced to purple formazan only in living cells. Solubilization of the formazan crystals was achieved by adding 100 μl 2-propanol. Cell viability was determined by measuring the absorbance of the reduced formazan, giving a purple color, at 540 nm and 690 nm. The absorbance measured at 690 nm was automatically subtracted from the absorbance at 540 nm, to eliminate the effects of non-specific absorption. The percent cytotoxicity achieved by the compounds was calculated according to standard methods. Cytotoxicity is reported as CC50, the concentration that causes a 50% reduction in cell viability.
The results are depicted in the table(s) below (HELAM).

[2] = test system: Staphylococcus aureus ATCC 29213; experiment: Antibacterial susceptibility testing, IC90 determination (STA); format: cell-based; conditions: resazurin; for IC90: Staphylococcus aureus, ATCC29213, Staphylococcus aureus ATCC 29213, broth microdilution, read-out: STA (361.159) IC90
Procedure: (§1) The following bacteria were used: Staphylococcus aureus ATCC 29213, methicillin-resistant Staphylococcus aureus (MRSA) ATCC 700788 and Escherichia coli ATCC 35218. The bacteria used in this study were grown overnight in flasks containing 100 ml Mueller-Hinton broth (Difco cat. nr. 0757-17) in sterile de-ionized water, with shaking, at 37° C. Stocks were store at −70° C. until use.
(§2) Bacteria were incubated on a tryptic soy agar plate containing 5% sheep blood (Becton Dickinson cat. nr. 254053) for 18-24 hours at 35° C. in aerobic conditions (first passage). For the second passage, fresh Mueller-Hinton broth is inoculated with 5-10 colonies and grown overnight at 35° C. until turbidity (reaching log-phase) in aerobic conditions is reached. The bacterial suspension is then adjusted to 0.5 McFarland density and further diluted 1:100 in Mueller Hinton broth medium. This is used as inoculum.
The result(s) are depicted the table below (for STA ATCC 29213).
(§3) MIC assays were performed by the broth microdilution method in a 96-well format (flat-bottom microtitre plates) with a final volume of 0.1 ml Mueller Hinton broth containing two-fold serial dilutions of compounds and inoculated with 5×10^5 CFU/ml of bacteria (standard inoculum size according to CLSI guidelines). Inhibitors are typically varied over the range of 63 to 0.49 μM. The final DMSO concentration in the assay was 1.25% (maximum tolerable DMSO concentration=6%). In the assays where the effect of human serum on the activity of the compounds against S. aureus was tested, human serum was added at a final concentration of 10%. The plates were incubated at 35° C. for 16-20 hours. At the end of incubation the bacterial growth was quantified fluorometrically. For this, resazurin was added to all wells and the plates were re-incubated. The incubation time is dependent on the type of bacteria. A change in color from blue to pink indicated the growth of bacteria. The fluorescence was read in computer-controlled fluorometer (Fluoroskan Ascent FL, Labsystems) at an excitation wavelength 540 nm and an emission wavelength of 590 nm. The % growth inhibition achieved by the compounds was calculated according to standard methods. The IC90 (expressed in μg/ml) was defined as the 90% inhibitory concentration for bacterial growth. A panel of reference compounds were simultaneously tested for QC approval.

S. aureus = experiment: Antibacterial susceptibility testing, IC90 determination with 10% human serum (STA + 10% HS); format: cell-based, Staphylococcus aureus; conditions: Staphylococcus aureus, human serum at final concentration of 10%, read-out: STA + 10% HS (361.169) IC90
Procedure: as §1, §2, §3
The results are depicted in the table(s) below (STA+10% HS).

[3] = target: T1, S. aureus ATCC 29213 FabI (Staphylococcus aureus, UniProt Q6GI75); experiment: Staphylococcus aureus FabI enzyme inhibition assay; format: biochemical; conditions: read-out: FabI (300.235) IC50 (converted)
T1 sequence (Q6GI75 1-256): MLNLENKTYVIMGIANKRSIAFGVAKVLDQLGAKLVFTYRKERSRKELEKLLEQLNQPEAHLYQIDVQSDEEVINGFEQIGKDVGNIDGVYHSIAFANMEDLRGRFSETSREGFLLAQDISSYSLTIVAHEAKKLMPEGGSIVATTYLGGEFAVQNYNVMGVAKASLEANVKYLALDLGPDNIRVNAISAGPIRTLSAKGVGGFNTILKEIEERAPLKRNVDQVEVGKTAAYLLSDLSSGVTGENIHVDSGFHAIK
Procedure: Y.1 FabI Enzyme Inhibition: Staphylococcus aureus FabI Enzyme Inhibition Assay
FabI enzyme inhibition assays were carried out in half-area, 384-well microtitre plates. Compounds were evaluated in 40-μl assay mixtures containing 100 mM NaADA, pH 6.5 (ADA=N-[2-acetamido]-2iminodiacetic acid), 250 μM crotonoyl-CoA, 625 μM NADH and 50 μg/ml S. aureus ATCC 29213 FabI. Inhibitors were typically varied over the range of 50 to 0.39 μM. The reaction mixtures were incubated for 30 minutes at room temperature and the reaction was stopped by adding 200 mM Tris buffer (pH 9.0) to create a pH-shift. The consumption of NADH was monitored by measuring the change in absorbance at […]. By comparing sample readings to those of negative (absence of compound) and positive (absence of enzyme) controls, the percent inhibition of enzymatic activity of the compounds was determined A best-fit curve is fitted by a minimum of squares method. From this an IC50-value (expressed in μg/ml), resulting in 50% inhibition of enzymatic activity, was obtained.

Compound	IC90 [2]	IC90 (S. aureus)	IC50 [3]	melting point	STA (361.159) IC90 ([2]; Staphylococcus aureus ATCC 29213, broth microdilution)	CC50 at 72 h [1]
O=C1Nc2ncc(/C=C/C(=O)N3CC4C=C(c5ccsc5)CC4C3)cc2CO1 (stereo not shown) [compound 35]	0.16 µg/mL (≈ 0.407 µM)	0.37 µg/mL	0.839 µM	> 250 °C	–	> 3.93 µg/mL
O=C(Nc1ccc(/C=C/C(=O)N2CC3C=C(c4ccccc4)CC3C2)cn1)c1ccccn1 (stereo not shown) [compound 24]	> 27.5 µg/mL	> 27.5 µg/mL	3.46 µM	–	–	7.76 µg/mL (≈ 17.8 µM)
O=C1Nc2ncc(/C=C/C(=O)N3CC4C=C(c5ccccc5)CC4C3)cc2Cn2cncc21 (stereo not shown) [Compound K11]	–	–	–	220 to 270 °C	–	–
N#Cc1cc(NC(=O)c2cccnc2)ncc1/C=C/C(=O)N1CC2C=C(c3ccccc3)CC2C1 (stereo not shown) [compound 27]	> 29.1 µg/mL	> 29.1 µg/mL	20.9 µM	–	–	> 11.6 µg/mL
CC1(C)Oc2cc(/C=C/C(=O)N3CC4C=C(c5ccccc5)CC4C3)cnc2NC1=O (stereo not shown) [compound 42]	< 0.2 µg/mL	< 0.2 µg/mL	–	–	–	–
O=C1CNCc2cc(/C=C/C(=O)N3C[C@H]4CC(c5ccccc5)=C[C@H]4C3)cnc2N1 (single isomer, unassigned) [compound 46]	0.23 µg/mL (≈ 0.574 µM)	0.27 µg/mL	0.924 µM	–	–	> 4.05 µg/mL
O=C(Nc1ccc(/C=C/C(=O)N2CC3C=C(c4ccccc4)CC3C2)cn1)c1cc(F)c(Cl)nc1Cl (stereo not shown) [compound 29]	> 33 µg/mL	> 33 µg/mL	9.32 µM	–	–	2.34 µg/mL (≈ 4.47 µM)
O=C(Nc1ccc(/C=C/C(=O)N2CC3C=C(c4ccsc4)CC3C2)cn1)c1cccnc1 (stereo not shown) [compound 4]	< 0.21 µg/mL	0.28 µg/mL	–	236.37 °C and 236 °C	–	0.97 µg/mL (≈ 2.19 µM)
O=C1CNCc2cc(/C=C/C(=O)N3CC4C=C(c5ccsc5)CC4C3)cnc2N1 (stereo not shown) [compound 40]	< 0.19 µg/mL	< 0.19 µg/mL	0.959 µM	–	–	> 10.2 µg/mL
Cc1cc(NC(=O)c2cccnc2)ncc1/C=C/C(=O)N1CC2C=C(c3ccccc3)CC2C1 (stereo not shown) [compound 26]	> 28.4 µg/mL	> 28.4 µg/mL	10.2 µM	–	–	> 11.3 µg/mL
Cc1nc(N)ccc1/C=C/C(=O)N1CC2C=C(c3ccccc3)CC2C1 (stereo not shown) [compound 21]	> 21.8 µg/mL	> 21.8 µg/mL	6.77 µM	–	–	3.11 µg/mL (≈ 9 µM)
Cc1cncc(C(=O)Nc2ccc(/C=C/C(=O)N3CC4C=C(c5nccs5)CC4C3)cn2)c1 (stereo not shown) [compound 6]	< 0.22 µg/mL	< 0.22 µg/mL	–	230.99 °C and 231 °C	–	> 11.5 µg/mL
N#Cc1cc(N)ncc1/C=C/C(=O)N1CC2C=C(c3ccccc3)CC2C1 (stereo not shown) [compound 22]	> 22.5 µg/mL	> 22.5 µg/mL	~33.9 µM	–	–	> 8.95 µg/mL
Cc1cc(N)ncc1/C=C/C(=O)N1CC2C=C(c3ccccc3)CC2C1 (stereo not shown) [compound 20]	> 21.8 µg/mL	> 21.8 µg/mL	8.31 µM	–	–	4.55 µg/mL (≈ 13.2 µM)
COc1nc(NC(C)=O)ccc1/C=C/C(=O)N1CC2C=C(c3ccccc3)CC2C1 (stereo not shown) [compound 23]	> 25.5 µg/mL	> 25.5 µg/mL	15.5 µM	–	–	> 10.1 µg/mL
Cc1nc(NC(=O)c2cccnc2)ccc1/C=C/C(=O)N1CC2C=C(c3ccccc3)CC2C1 (stereo not shown) [compound 25]	> 28.4 µg/mL	> 28.4 µg/mL	14.4 µM	–	–	> 11.3 µg/mL
O=C(Nc1ncc(/C=C/C(=O)N2CC3C=C(c4ccccc4)CC3C2)cc1CN1CCOCC1)c1cccnc1 (stereo not shown) [compound 34]	> 33.8 µg/mL	> 33.8 µg/mL	2.95 µM	–	–	12.6 µg/mL (≈ 23.4 µM)
COc1ccc(C(=O)Nc2ccc(/C=C/C(=O)N3CC4C=C(c5ccccc5)CC4C3)cn2)c(OC)n1 (stereo not shown) [compound 28]	> 31.3 µg/mL	> 31.3 µg/mL	14.8 µM	–	–	2.99 µg/mL (≈ 6.02 µM)
COc1cncc(C(=O)Nc2ccc(/C=C/C(=O)N3CC4C=C(c5ccccc5)CC4C3)cn2)c1 (stereo not shown) [Cpd. No. 7]	< 0.22 µg/mL	0.42 µg/mL	2.4 µM	–	–	> 11.7 µg/mL

More lines, main results first:

IC90 [2]	IC90 (S. aureus)	IC50 [3]	melting point	STA (361.159) IC90 ([2]; Staphylococcus aureus ATCC 29213, broth microdilution)	Compound	CC50 at 72 h [1]
0.42 µg/mL (≈ 0.918 µM)	0.38 µg/mL	0.743 µM	212 °C	–	O=C1Nc2ncc(/C=C/C(=O)N3CC4C=C(c5ccncc5)CC4C3)cc2CN2CCOCC12 (stereo not shown) [compound 80]	> 11.5 µg/mL
< 0.2 µg/mL	< 0.2 µg/mL	–	–	–	CC1(C)Oc2cc(/C=C/C(=O)N3CC4C=C(c5nccs5)CC4C3)cnc2NC1=O (stereo not shown) [compound 44]	–
0.92 µg/mL (≈ 1.85 µM)	0.87 µg/mL	1.34 µM	–	–	CC(=O)N1CCN2Cc3cc(/C=C/C(=O)N4CC5C=C(c6ccncc6)CC5C4)cnc3NC(=O)C2C1 (stereo not shown) [compound 84]	> 12.5 µg/mL
–	–	–	242 to 267 °C	–	CCOC(=O)N1CCN2Cc3cc(/C=C/C(=O)N4CC5C=C(c6ccccc6)CC5C4)cnc3NC(=O)C2C1 (stereo not shown) [compound 88]	–
0.45 µg/mL (≈ 0.958 µM)	0.43 µg/mL	–	230 to 232 °C	–	O=C1Nc2ncc(/C=C/C(=O)N3CC4C=C(c5ccccc5)CC4C3)cc2C(=O)N2CCNCC12 (stereo not shown) [compound 81]	–
–	–	–	> 250 °C	–	O=C1Nc2ncc(/C=C/C(=O)N3C[C@@H]4CN(c5ccccc5)C[C@@H]4C3)cc2CN2CCOCC12 (stereo partly shown) [compound 87]	–
< 0.2 µg/mL	< 0.2 µg/mL	–	–	–	Cn1nccc1C1=CC2CN(C(=O)/C=C/c3cnc4c(c3)OC(C)(C)C(=O)N4)CC2C1 (stereo not shown) [compound 45]	–
> 26.4 µg/mL	> 26.4 µg/mL	7.41 µM	–	–	CN1CC(=O)Nc2ncc(/C=C/C(=O)N3C[C@@H]4CN(c5cccnc5)C[C@@H]4C3)cc2C1 [compound 62]	> 10.5 µg/mL
< 0.21 µg/mL	< 0.21 µg/mL	1.1 µM	–	–	O=C1Nc2ncc(/C=C/C(=O)N3CC4C=C(c5ccccc5)CC4C3)cc2Cn2cncc21 (stereo not shown) [compound 71]	6.78 µg/mL (≈ 15.5 µM)
> 24.1 µg/mL	> 24.1 µg/mL	> 50.1 µM	–	–	C=CCN1C[C@@H]2CN(C(=O)/C=C/c3cnc4c(c3)CN(C)CC(=O)N4)C[C@@H]2C1 [compound 61]	> 9.58 µg/mL
3.47 µg/mL (≈ 7.93 µM)	3.81 µg/mL	1.83 µM	–	–	O=C1Nc2ncc(/C=C/C(=O)N3CC4C=C(c5ccccc5)CC4C3)cc2Cn2nccc21 (stereo not shown) [compound 86]	–
–	–	–	–	<0.20 µg/mL	CC1(C)Oc2cc(/C=C/C(=O)N3CC4C=C(c5ccccc5)CC4C3)cnc2NC1=O (stereo not shown) [compound 43]	–
